# Assay results from ChEMBL document CHEMBL1139487, “Discovery of corticotropin releasing factor 2 receptor selective sauvagine analogues for treatment of skeletal muscle atrophy” (J Med Chem, 2005).
# pEC50: −log10 of the molar value.
# Key:
# [1] = target: T1, Corticotropin-releasing factor receptor 1 (Mus musculus, UniProt P35347); test: In vitro effective concentration for mouse corticotropin releasing factor 1 receptor
# T1 sequence (P35347 whole entry): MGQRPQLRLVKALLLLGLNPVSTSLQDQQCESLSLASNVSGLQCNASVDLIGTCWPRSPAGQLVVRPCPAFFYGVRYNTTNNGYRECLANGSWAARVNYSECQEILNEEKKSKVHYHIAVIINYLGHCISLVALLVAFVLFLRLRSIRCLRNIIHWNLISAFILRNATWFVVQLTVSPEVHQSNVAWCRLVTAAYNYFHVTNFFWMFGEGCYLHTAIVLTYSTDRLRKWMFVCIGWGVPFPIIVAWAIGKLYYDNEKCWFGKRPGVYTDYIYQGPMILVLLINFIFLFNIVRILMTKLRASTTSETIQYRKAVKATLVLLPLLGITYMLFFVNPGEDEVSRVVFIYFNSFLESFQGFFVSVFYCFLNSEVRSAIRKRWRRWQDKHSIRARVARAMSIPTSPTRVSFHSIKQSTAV
# [2] = target: Corticotropin-releasing factor receptor 2 (Mus musculus, UniProt Q60748); test: In vitro effective concentration for mouse corticotropin releasing factor 2 receptor
# Sequence of Corticotropin-releasing factor receptor 2 (Q60748 whole entry): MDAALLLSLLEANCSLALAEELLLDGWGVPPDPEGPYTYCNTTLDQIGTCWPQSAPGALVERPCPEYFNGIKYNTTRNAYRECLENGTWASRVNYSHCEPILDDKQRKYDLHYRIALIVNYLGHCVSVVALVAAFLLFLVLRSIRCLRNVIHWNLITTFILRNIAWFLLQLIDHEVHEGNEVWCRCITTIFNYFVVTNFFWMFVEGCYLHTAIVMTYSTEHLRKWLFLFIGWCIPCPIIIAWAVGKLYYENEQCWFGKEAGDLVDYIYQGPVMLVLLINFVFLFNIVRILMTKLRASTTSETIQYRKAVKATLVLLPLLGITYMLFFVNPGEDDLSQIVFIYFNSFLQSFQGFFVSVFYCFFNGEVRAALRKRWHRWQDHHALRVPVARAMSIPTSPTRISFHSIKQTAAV
# [3] = target: T2, Corticotropin-releasing factor receptor 1 (Mus musculus) (UniProt P35347); test: In vitro agonistic activity against mouse corticotropin releasing factor 1 receptor; format: functional
# T2 sequence (whole entry): T1 sequence (P35347 whole entry)
# [4] = target: Corticotropin-releasing factor receptor 2 (Mus musculus) (UniProt Q60748); test: In vitro agonistic activity against mouse corticotropin releasing factor 2 receptor; format: functional
# Sequence of Corticotropin-releasing factor receptor 2 (Mus musculus) (Q60748 whole entry): as above
# [5] = organism: Mus musculus; test: Selectivity ratio of EC50s for mouse corticotropin releasing factor receptors 1 and 2
Structure (SMILES),pEC50 [1],pEC50 [2],Emax [3],Emax [4],Selectivity [5]
CC[C@H](C)[C@H](NC(=O)[C@@H](NC(=O)[C@H](CC(=O)O)NC(=O)[C@H](CC(C)C)NC(=O)[C@H](CC(C)C)NC(=O)[C@H](CC(C)C)NC(=O)[C@H](CCCN=C(N)N)NC(=O)[C@H](CC(N)=O)NC(=O)[C@H](CC(N)=O)NC(=O)[C@H](C)NC(=O)[C@H](C)NC(=O)[C@H](CCC(N)=O)NC(=O)[C@H](CCC(N)=O)NC(=O)[C@H](CCCCN)NC(=O)[C@H](CCC(=O)O)NC(=O)[C@H](CCCCN)NC(=O)[C@H](CCC(=O)O)NC(=O)[C@H](CCC(N)=O)NC(=O)[C@H](CCCCN)NC(=O)[C@H](CCC(=O)O)NC(=O)[C@@H](NC(=O)[C@H](CCC(=O)O)NC(=O)[C@@H](NC(=O)[C@H](CCSC)NC(=O)[C@H](CCCCN)NC(=O)[C@H](CCCN=C(N)N)NC(=O)[C@H](CC(C)C)NC(=O)[C@H](CC(C)C)NC(=O)[C@H](Cc1ccccc1)NC(=O)[C@@H](NC(=O)[C@@H]1CCCN1C(=O)[C@H](CC(C)C)NC(=O)[C@H](CC(=O)O)NC(=O)[C@@H](NC(=O)[C@H](CO)NC(=O)[C@@H](NC(=O)[C@@H]1CCCN1C(=O)[C@@H]1CCCN1C(=O)CNC(=O)[C@@H]1CCC(=O)N1)[C@@H](C)CC)[C@@H](C)CC)[C@@H](C)O)[C@@H](C)CC)[C@@H](C)CC)[C@@H](C)O)C(=O)O,6.03,7.72,64%,87%,49
CC[C@H](C)[C@H](NC(=O)[C@@H](NC(=O)[C@H](CC(=O)O)NC(=O)[C@H](CC(C)C)NC(=O)[C@H](CC(C)C)NC(=O)[C@H](CC(C)C)NC(=O)[C@H](CCCN=C(N)N)NC(=O)[C@H](CC(N)=O)NC(=O)[C@H](CC(N)=O)NC(=O)[C@H](C)NC(=O)[C@H](C)NC(=O)[C@H](CCC(N)=O)NC(=O)[C@H](CCC(N)=O)NC(=O)[C@H](CCCCN)NC(=O)[C@H](CCC(=O)O)NC(=O)[C@H](CCCCN)NC(=O)[C@H](CCC(=O)O)NC(=O)[C@H](CCC(N)=O)NC(=O)[C@H](CCCCN)NC(=O)[C@H](CCC(=O)O)NC(=O)[C@@H](NC(=O)[C@H](CCC(=O)O)NC(=O)[C@@H](NC(=O)[C@H](CCSC)NC(=O)[C@H](CCCCN)NC(=O)[C@H](CCCN=C(N)N)NC(=O)[C@H](CC(C)C)NC(=O)[C@H](CC(C)C)NC(=O)[C@H](Cc1ccccc1)NC(=O)[C@H](CC(C)C)NC(=O)[C@@H]1CCCN1C(=O)[C@H](CC(C)C)NC(=O)[C@H](CC(=O)O)NC(=O)[C@@H](NC(=O)[C@H](CO)NC(=O)[C@@H](NC(=O)[C@@H]1CCCN1C(=O)[C@@H]1CCCN1C(=O)CNC(=O)[C@@H]1CCC(=O)N1)[C@@H](C)CC)[C@@H](C)CC)[C@@H](C)CC)[C@@H](C)CC)[C@@H](C)O)C(=O)O,6.99,8.00,93%,88%,10
CC[C@H](C)[C@H](NC(=O)[C@@H](NC(=O)[C@H](CC(=O)O)NC(=O)[C@H](CC(C)C)NC(=O)[C@H](CC(C)C)NC(=O)[C@H](CC(C)C)NC(=O)[C@H](CCCN=C(N)N)NC(=O)[C@H](CC(N)=O)NC(=O)[C@H](CC(N)=O)NC(=O)[C@H](C)NC(=O)[C@H](C)NC(=O)[C@H](CCC(N)=O)NC(=O)[C@H](CCC(N)=O)NC(=O)[C@H](CCCCN)NC(=O)[C@H](CCC(=O)O)NC(=O)[C@H](CCCCN)NC(=O)[C@H](CCC(=O)O)NC(=O)[C@H](CCC(N)=O)NC(=O)[C@H](CCCCN)NC(=O)[C@H](CCC(=O)O)NC(=O)[C@@H](NC(=O)[C@H](CCC(=O)O)NC(=O)[C@@H](NC(=O)[C@H](CCSC)NC(=O)[C@H](CCCCN)NC(=O)[C@H](CCCN=C(N)N)NC(=O)[C@H](CC(C)C)NC(=O)[C@H](CC(C)C)NC(=O)[C@H](CCC(N)=O)NC(=O)[C@H](Cc1c[nH]cn1)NC(=O)[C@@H]1CCCN1C(=O)[C@H](CC(C)C)NC(=O)[C@H](CC(=O)O)NC(=O)[C@@H](NC(=O)[C@H](CO)NC(=O)[C@@H](NC(=O)[C@@H]1CCCN1C(=O)[C@@H]1CCCN1C(=O)CNC(=O)[C@@H]1CCC(=O)N1)[C@@H](C)CC)[C@@H](C)CC)[C@@H](C)CC)[C@@H](C)CC)[C@@H](C)O)C(=O)O,6.35,7.67,100%,100%,21

# The next lines start with the values.
pEC50 [1],pEC50 [2],Emax [3],Emax [4],Selectivity [5],Structure (SMILES)
6.72,8.06,99%,100%,21,CC[C@H](C)[C@H](NC(=O)[C@@H](NC(=O)[C@H](CC(=O)O)NC(=O)[C@H](CC(C)C)NC(=O)[C@H](CC(C)C)NC(=O)[C@H](CC(C)C)NC(=O)[C@H](CCCN=C(N)N)NC(=O)[C@H](CC(N)=O)NC(=O)[C@H](CC(N)=O)NC(=O)[C@H](C)NC(=O)[C@H](C)NC(=O)[C@H](CCC(N)=O)NC(=O)[C@H](CCC(N)=O)NC(=O)[C@H](CCCCN)NC(=O)[C@H](CCC(=O)O)NC(=O)[C@H](CCCCN)NC(=O)[C@H](CCC(=O)O)NC(=O)[C@H](CCC(N)=O)NC(=O)[C@H](CCCCN)NC(=O)[C@H](CCC(=O)O)NC(=O)[C@@H](NC(=O)[C@H](CCC(=O)O)NC(=O)[C@@H](NC(=O)[C@H](CCSC)NC(=O)[C@H](CCCCN)NC(=O)[C@H](CCCN=C(N)N)NC(=O)[C@H](CC(C)C)NC(=O)[C@H](CC(C)C)NC(=O)[C@@H](NC(=O)[C@H](Cc1ccc(O)cc1)NC(=O)[C@@H]1CCCN1C(=O)[C@H](CC(C)C)NC(=O)[C@H](CC(=O)O)NC(=O)[C@@H](NC(=O)[C@H](CO)NC(=O)[C@@H](NC(=O)[C@@H]1CCCN1C(=O)[C@@H]1CCCN1C(=O)CNC(=O)[C@@H]1CCC(=O)N1)[C@@H](C)CC)[C@@H](C)CC)[C@@H](C)O)[C@@H](C)CC)[C@@H](C)CC)[C@@H](C)O)C(=O)O
6.63,8.07,100%,100%,28,CC[C@H](C)[C@H](NC(=O)[C@@H](NC(=O)[C@H](CC(=O)O)NC(=O)[C@H](CC(C)C)NC(=O)[C@H](CC(C)C)NC(=O)[C@H](CC(C)C)NC(=O)[C@H](CCCN=C(N)N)NC(=O)[C@H](CC(N)=O)NC(=O)[C@H](CC(N)=O)NC(=O)[C@H](C)NC(=O)[C@H](C)NC(=O)[C@H](CCC(N)=O)NC(=O)[C@H](CCC(N)=O)NC(=O)[C@H](CCCCN)NC(=O)[C@H](CCC(=O)O)NC(=O)[C@H](CCCCN)NC(=O)[C@H](CCC(=O)O)NC(=O)[C@H](CCC(N)=O)NC(=O)[C@H](CCCCN)NC(=O)[C@H](CCC(=O)O)NC(=O)[C@@H](NC(=O)[C@H](CCC(=O)O)NC(=O)[C@@H](NC(=O)[C@H](CCSC)NC(=O)[C@H](CCCCN)NC(=O)[C@H](CCCN=C(N)N)NC(=O)[C@H](CC(C)C)NC(=O)[C@H](CC(C)C)NC(=O)[C@H](Cc1ccccc1)NC(=O)[C@H](CCC(N)=O)NC(=O)[C@@H]1CCCN1C(=O)[C@H](CC(C)C)NC(=O)[C@H](CC(=O)O)NC(=O)[C@@H](NC(=O)[C@H](CO)NC(=O)[C@@H](NC(=O)[C@@H]1CCCN1C(=O)[C@@H]1CCCN1C(=O)CNC(=O)[C@@H]1CCC(=O)N1)[C@@H](C)CC)[C@@H](C)CC)[C@@H](C)CC)[C@@H](C)CC)[C@@H](C)O)C(=O)O
6.97,8.30,94%,96%,21,CC[C@H](C)[C@H](NC(=O)[C@@H](NC(=O)[C@H](CC(=O)O)NC(=O)[C@H](CC(C)C)NC(=O)[C@H](CC(C)C)NC(=O)[C@H](CC(C)C)NC(=O)[C@H](CCCN=C(N)N)NC(=O)[C@H](CC(N)=O)NC(=O)[C@H](CC(N)=O)NC(=O)[C@H](C)NC(=O)[C@H](C)NC(=O)[C@H](CCC(N)=O)NC(=O)[C@H](CCC(N)=O)NC(=O)[C@H](CCCCN)NC(=O)[C@H](CCC(=O)O)NC(=O)[C@H](CCCCN)NC(=O)[C@H](CCC(=O)O)NC(=O)[C@H](CCC(N)=O)NC(=O)[C@H](CCCCN)NC(=O)[C@H](CCC(=O)O)NC(=O)[C@@H](NC(=O)[C@H](CCC(=O)O)NC(=O)[C@@H](NC(=O)[C@H](CCSC)NC(=O)[C@H](CCCCN)NC(=O)[C@H](CCCN=C(N)N)NC(=O)[C@H](CC(C)C)NC(=O)[C@H](CC(C)C)NC(=O)[C@@H](NC(=O)[C@H](CC(C)C)NC(=O)[C@@H]1CCCN1C(=O)[C@H](CC(C)C)NC(=O)[C@H](CC(=O)O)NC(=O)[C@@H](NC(=O)[C@H](CO)NC(=O)[C@@H](NC(=O)[C@@H]1CCCN1C(=O)[C@@H]1CCCN1C(=O)CNC(=O)[C@@H]1CCC(=O)N1)[C@@H](C)CC)[C@@H](C)CC)[C@@H](C)CC)[C@@H](C)CC)[C@@H](C)CC)[C@@H](C)O)C(=O)O
< 6.00,7.83,4%,73%,> 68,CC[C@H](C)[C@H](NC(=O)[C@@H](NC(=O)[C@H](CC(=O)O)NC(=O)[C@H](CC(C)C)NC(=O)[C@H](CC(C)C)NC(=O)[C@H](CC(C)C)NC(=O)[C@H](CCCN=C(N)N)NC(=O)[C@H](CC(N)=O)NC(=O)[C@H](CC(N)=O)NC(=O)[C@H](C)NC(=O)[C@H](C)NC(=O)[C@H](CCC(N)=O)NC(=O)[C@H](CCC(N)=O)NC(=O)[C@H](CCCCN)NC(=O)[C@H](CCC(=O)O)NC(=O)[C@H](CCCCN)NC(=O)[C@H](CCC(=O)O)NC(=O)[C@H](CCC(N)=O)NC(=O)[C@H](CCCCN)NC(=O)[C@H](CCC(=O)O)NC(=O)[C@@H](NC(=O)[C@H](CCC(=O)O)NC(=O)[C@@H](NC(=O)[C@H](CCSC)NC(=O)[C@H](CCCCN)NC(=O)[C@H](CCCN=C(N)N)NC(=O)[C@H](CC(C)C)NC(=O)[C@H](CC(C)C)NC(=O)[C@@H](NC(=O)[C@@H](NC(=O)[C@@H]1CCCN1C(=O)[C@H](CC(C)C)NC(=O)[C@H](CC(=O)O)NC(=O)[C@@H](NC(=O)[C@H](CO)NC(=O)[C@@H](NC(=O)[C@@H]1CCCN1C(=O)[C@@H]1CCCN1C(=O)CNC(=O)[C@@H]1CCC(=O)N1)[C@@H](C)CC)[C@@H](C)CC)[C@@H](C)CC)[C@@H](C)CC)[C@@H](C)CC)[C@@H](C)CC)[C@@H](C)O)C(=O)O
